19 molecules from PubChem BioAssay AID328 (DTP/NCI, 2004) can be followed below.

Values joined by “and” are separate entries in the source; they are usually repeats but may differ in a detail not shown here. Equal values may be shown once. Toxic doses and inconclusive results are not listed.

The subject of the test is BDF1 mice, P388 leukemia ip, median survival T/C. Description: NCI In Vivo Anticancer Drug Screen. Data for tumor model P388 Leukemia (intraperitoneal) in B6D2F1 (BDF1) mice. Particulars: endpoint: median survival time, higher = longer survival. The method in brief: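 T/C = treated-group survival ÷ vehicle-control survival; tumour transplanted into mice before dosing.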

Setting [1] is: dose: 50.0 mg/kg/injection, schedule: Q01DX009 (ip), vehicle: saline with Tween-80.
The mark [2] stands for this setting: dose: 100.0 mg/kg/injection, schedule: Q01DX009 (ip), vehicle: saline with Tween-80.
Setting [3] is: dose: 200.0 mg/kg/injection, schedule: Q01DX009 (ip), vehicle: saline with Tween-80.
The mark [4] stands for this setting: dose: 50.0 mg/kg/injection, schedule: Q01DX009 (ip), vehicle: saline.
Setting [5] is: dose: 100.0 mg/kg/injection, schedule: Q01DX009 (ip), vehicle: saline.
Setting [6] is: dose: 200.0 mg/kg/injection, schedule: Q01DX009 (ip), vehicle: saline.
The mark [7] stands for this setting: dose: 100.0 mg/kg/injection, schedule: Q04DX003 (ip), vehicle: saline with Tween-80.
The mark [8] stands for this setting: dose: 200.0 mg/kg/injection, schedule: Q04DX003 (ip), vehicle: saline with Tween-80.
[9] abbreviates: dose: 400.0 mg/kg/injection, schedule: Q01DX009 (ip), vehicle: saline with Tween-80.
Setting [10] is: dose: 400.0 mg/kg/injection, schedule: Q04DX003 (ip), vehicle: saline with Tween-80.
Setting [11] is: dose: 6.25 mg/kg/injection, schedule: Q01DX009 (ip), vehicle: saline.
Setting [12] is: dose: 12.5 mg/kg/injection, schedule: Q01DX009 (ip), vehicle: saline.
Where [13] appears, read: dose: 25.0 mg/kg/injection, schedule: Q01DX009 (ip), vehicle: saline.
The mark [14] stands for this setting: dose: 100.0 mg/kg/injection, schedule: Q04DX003 (ip), vehicle: saline.

For `O=C1CNC(=O)c2cc(N=Cc3cc(Br)ccc3O)ccc2N1`, the T/C under setting [1] is 99 % of control, the T/C under setting [2] was 89 % of control and the T/C under setting [3] is 100 % of control.

Take `CC1(C)C2CC34CCCN3C(=O)C2(CC12Nc1ccccc1C2=O)NC4=O` (configuration not stated): the T/C reads like this: under setting [4], 102 % of control; under setting [5], 109 % of control; under setting [6], 113 % of control.

As for `S=c1[nH]c2ccccc2s1.[Zn+2]`, the T/C by setting is: under setting [1], 98 % of control; under setting [2], 100 % of control; under setting [3], 99 % of control.

As for `COc1ccc(CC(=O)Cc2ccc(OC)c(OC)c2)cc1OC`, the T/C was 104 % of control (dose: 25.0 mg/kg/injection, schedule: Q01DX009 (ip), vehicle: saline with Tween-80); 113 % of control under setting [1]; 113 % of control and 123 % of control under setting [2]; 109 % of control under setting [7]; 95 % of control and 120 % of control under setting [3]; 104 % of control under setting [8]. The T/C is 118 % of control under setting [9] and 90 % of control under setting [10].

Consider `CC(C)(O)c1ccccc1S(=O)c1ccc(Cl)cc1` (configuration not stated), for which the T/C is, setting by setting: under setting [1], 100 % of control; under setting [2], 101 % of control; under setting [3], 99 % of control.

As to `O=S(=O)(Nc1ccc(-c2ccccc2)cc1)c1ccccc1`, the T/C is, setting by setting: under setting [1], 108 % of control; under setting [2], 101 % of control; under setting [3], 101 % of control; under setting [9], 106 % of control.

Turning to `Cc1ccc(NCCN(C)C)c2c(=O)c3ccccc3sc12`, the T/C was 96 % of control under setting [11]; 105 % of control (dose: 12.0 mg/kg/injection, schedule: Q04DX003 (ip), vehicle: saline); 103 % of control under setting [12]; 120 % of control (dose: 19.0 mg/kg/injection, schedule: Q04DX003 (ip), vehicle: saline); 107 % of control under setting [13]; 155 % of control (dose: 100.0 mg/kg/injection, schedule: Q04DX003 (ip), vehicle: alcohol). Also, the T/C under setting [14] is 168 % of control and 170 % of control; the T/C (dose: 150.0 mg/kg/injection, schedule: Q04DX003 (ip), vehicle: saline) is 205 % of control; the T/C (dose: 200.0 mg/kg/injection, schedule: Q04DX003 (ip), vehicle: alcohol) is 100 % of control.

`CCSc1ncnc2c1ncn2C1OC(CO)C(O)C1O` (configuration not stated): the T/C is, setting by setting: under setting [1], 95 % of control; under setting [2], 117 % of control; under setting [3], 91 % of control.

On to `CCOC(=O)C(C1=NC(C)(C)CC(C)O1)C(C[N+](=O)[O-])c1ccccc1` (configuration not stated), for which the T/C reads like this: (dose: 50.0 mg/kg/injection, schedule: Q01DX001 (ip), vehicle: saline sonified) 100 % of control; (dose: 100.0 mg/kg/injection, schedule: Q01DX001 (ip), vehicle: saline sonified) 100 % of control; (dose: 200.0 mg/kg/injection, schedule: Q01DX001 (ip), vehicle: saline sonified) 100 % of control.

In the case of `CCOC(=O)C(/C=N/C(N)=O)=C(\C)O`, the T/C (dose: 100.0 mg/kg/injection, schedule: Q01DX009 (ip), vehicle: Klucel (hydroxypropylcellulose) (HPC)) was 87 % of control; the T/C (dose: 100.0 mg/kg/injection, schedule: Q04DX003 (ip), vehicle: Klucel (hydroxypropylcellulose) (HPC)) is 100 % of control; the T/C (dose: 200.0 mg/kg/injection, schedule: Q01DX009 (ip), vehicle: Klucel (hydroxypropylcellulose) (HPC)) was 95 % of control; the T/C (dose: 200.0 mg/kg/injection, schedule: Q04DX003 (ip), vehicle: Klucel (hydroxypropylcellulose) (HPC)) is 95 % of control; the T/C (dose: 400.0 mg/kg/injection, schedule: Q01DX009 (ip), vehicle: Klucel (hydroxypropylcellulose) (HPC)) is 87 % of control; the T/C (dose: 400.0 mg/kg/injection, schedule: Q04DX003 (ip), vehicle: Klucel (hydroxypropylcellulose) (HPC)) was 95 % of control.

Consider `CCOC(C[Se][Se]CC(OCC)OCC)OCC`, for which the T/C reads like this: (dose: 1.56 mg/kg/injection, schedule: Q01DX009 (ip), vehicle: saline) 99 % of control; (dose: 3.13 mg/kg/injection, schedule: Q01DX009 (ip), vehicle: saline) 102 % of control; under setting [11], 102 % of control.

Regarding `CCSCCCCSCC`, the T/C by setting is: under setting [7], 104 % of control; under setting [8], 104 % of control; under setting [10], 100 % of control.

For `COc1ccc(CN(C)CCN(C)CCN(C)Cc2ccc(OC)cc2)cc1`, the T/C reads like this: (dose: 3.12 mg/kg/injection, schedule: Q01DX009 (ip), vehicle: water) 92 % of control; under setting [11], 102 % of control; (dose: 6.25 mg/kg/injection, schedule: Q01DX009 (ip), vehicle: water) 108 % of control; under setting [12], 103 % of control; (dose: 12.5 mg/kg/injection, schedule: Q01DX009 (ip), vehicle: water) 99 % of control; under setting [13], 93 % of control. Moreover, the T/C is, setting by setting: (dose: 25.0 mg/kg/injection, schedule: Q01DX009 (ip), vehicle: water) 100 % of control; (dose: 25.0 mg/kg/injection, schedule: Q04DX003 (ip), vehicle: water) 90 % of control; under setting [4], 86 % of control; (dose: 50.0 mg/kg/injection, schedule: Q01DX009 (ip), vehicle: water) 106 % of control; (dose: 50.0 mg/kg/injection, schedule: Q04DX003 (ip), vehicle: water) 99 % of control; (dose: 100.0 mg/kg/injection, schedule: Q04DX003 (ip), vehicle: water) 96 % of control.

As to `CO[C@@H]1C=C[C@@]23c4cc5c(cc4CN(C[C@@H]2O)[C@H]3C1)OCO5`, the T/C was 104 % of control (dose: 18.75 mg/kg/injection, schedule: Q01DX010 (ip), vehicle: saline) and 104 % of control (dose: 37.5 mg/kg/injection, schedule: Q01DX010 (ip), vehicle: saline).

Regarding `O=C1C=C(N2CC2)C(=O)C(N2CC2)=C1N1CC1`, the T/C by setting is: (dose: 0.02 mg/kg/injection, schedule: Q01DX009 (ip), vehicle: saline) 265 % of control and 328 % of control; (dose: 0.04 mg/kg/injection, schedule: Q01DX009 (ip), vehicle: saline) 98 % of control.

For the molecule `O=C1COCC(=O)C1`, the T/C is 96 % of control (dose: 100.0 mg/kg/injection, schedule: Q01DX001 (ip), vehicle: saline); 107 % of control (dose: 200.0 mg/kg/injection, schedule: Q01DX001 (ip), vehicle: saline); 100 % of control (dose: 400.0 mg/kg/injection, schedule: Q01DX001 (ip), vehicle: saline).

In the case of `NC(=O)NCCNC(N)=O`, the T/C reads like this: under setting [5], 95 % of control; under setting [14], 112 % of control; under setting [6], 95 % of control; (dose: 200.0 mg/kg/injection, schedule: Q04DX003 (ip), vehicle: saline) 95 % of control; (dose: 400.0 mg/kg/injection, schedule: Q01DX009 (ip), vehicle: saline) 91 % of control; (dose: 400.0 mg/kg/injection, schedule: Q04DX003 (ip), vehicle: saline) 112 % of control.

Consider `CCC(C)(OC(C)=O)C(=O)O[C@H]1C(=O)O[C@@H]2C[C@H]3C(C)=CC(=O)[C@@H](O)[C@]3(C)[C@H]3[C@@]4(O)OC[C@]32[C@@H]1[C@@H](C)[C@H]4O` (some centres not stated), for which the T/C was 119 % of control (dose: 0.25 mg/kg/injection, schedule: Q01DX009 (ip), vehicle: saline); 157 % of control (dose: 1.25 mg/kg/injection, schedule: Q01DX009 (ip), vehicle: saline); 121 % of control (dose: 2.0 mg/kg/injection, schedule: Q01DX009 (ip), vehicle: saline); 123 % of control (dose: 5.0 mg/kg/injection, schedule: Q01DX009 (ip), vehicle: saline).

On to `O=C1c2c(Cl)c(Cl)c(Cl)c(Cl)c2C(=O)N1c1ccccc1-c1ccccc1`, for which the T/C (dose: 175.0 mg/kg/injection, schedule: Q01DX009 (ip), vehicle: saline with Tween-80) is 89 % of control and the T/C (dose: 350.0 mg/kg/injection, schedule: Q01DX009 (ip), vehicle: saline with Tween-80) was 94 % of control.
